In patent US20100298141A1, “SUBSTITUTED PYRIDINE N-OXIDE HERBICIDES” (E. I. DU PONT DE NEMOURS AND COMPANY, priority 2007, published 2010):

Legend:
guineagrass = experiment: Test F preemergence test; format: in vivo, Panicum maximum; details: scale 0 to 100
Method in brief: (§1)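 Visual ratings relative to controls, taken after 14 to 21 days in a greenhouse. Test chemicals, formulated in a surfactant-containing non-phytotoxic solvent mixture, were applied preemergence to sown seeds or postemergence to sugarcane plants.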

southern sandbur = experiment: Test F preemergence test; format: in vivo, Cenchrus echinatus; details: scale 0 to 100
Method in brief: as §1

common groundsel = experiment: Test F preemergence test; format: in vivo, Senecio vulgaris; details: scale 0 to 100
Method in brief: as §1

itchgrass = experiment: Test F preemergence test; format: in vivo, Rottboellia cochinchinensis; details: scale 0 to 100
Method in brief: as §1

Russian thistle = experiment: Test C pre-/postemergence test; format: in vivo, Salsola kali; details: for Plant response rating, Russian Thistle: 31 g ai/ha, scale 0 to 100 (0 no effect, 100 complete control)
Source text: (§2) Seeds of plant species selected from blackgrass (Alopecurus myosuroides), downy brome (Bromus tectorum), green foxtail (Setaria viridis), Italian ryegrass (Lolium multiflorum), wheat (Triticum aestivum), wild oat (Avena fatua), catchweed bedstraw (Galium aparine), Russian thistle (Salsola kali), […] (Cynodon dactylon), Surinam grass (Brachiaria decumbens), cocklebur (Xanthium strumarium), corn (Zea mays), crabgrass (Digitaria sanguinalis), woolly cupgrass (Eriochloa villosa), giant foxtail (Setaria faberii), Goosegrass (Eleusin indica), johnsongrass (Sorghum halepense), kochia (Kochia scoparia), lambsquarters (Chenopodium album), morningglory (Ipomoea coccinea), eastern black nightshade (Solanum ptycanthum), yellow nutsedge (Cyperus esculentus), pigweed (Amaranthus retroflexus), common ragweed (Ambrosia elation), soybean (Glycine max), common (oilseed) sunflower (Helianthus annuus), and velvetleaf (Abutilon theophrasti) were planted and treated preemergence with test chemicals formulated in a non-phytotoxic solvent mixture which included a surfactant. At the same time, plants selected from these crop and weed species and also winter barley (Hordeum vulgare), canarygrass (Phalaris minor), and chickweed (Stellaria media) were treated with postemergence applications of some of the test chemicals formulated in the same manner. Plants ranged in height from 2 to 18 cm (1- to 4-leaf stage) for postemergence treatments. […] At time of treatment, test pots were flooded to 3 cm above the soil surface, treated by application of test compounds directly to the paddy water, and then maintained at that water depth for the duration of the test. […] A dash (-) response means no test result.

common mallow = experiment: Test F preemergence test; format: in vivo, Malva sylvestris; details: scale 0 to 100
Method in brief: as §1

green foxtail = experiment: Test F preemergence test; format: in vivo, Setaria viridis; details: scale 0 to 100
Method in brief: as §1

prickly sida = experiment: Test F preemergence test; format: in vivo, Sida spinosa; details: scale 0 to 100
Method in brief: as §1

common purslane = experiment: Test F preemergence test; format: in vivo, Portulaca oleracea; details: scale 0 to 100
Method in brief: as §1

quackgrass = experiment: Test F preemergence test; format: in vivo, Elytrigia repens; details: scale 0 to 100
Method in brief: as §1

field bindweed = experiment: Test F preemergence test; format: in vivo, Convolvulus arvensis; details: scale 0 to 100
Method in brief: as §1

dallisgrass = experiment: Test F preemergence test; format: in vivo, Paspalum dilatatum; details: scale 0 to 100
Method in brief: as §1

mustard = experiment: Test F preemergence test; format: in vivo, Brassica nigra; details: scale 0 to 100
Method in brief: as §1

barnyardgrass = experiment: Test F preemergence test; format: in vivo, Echinochloa crus-galli
Method in brief: as §1

windgrass = experiment: Test C pre-/postemergence test; format: in vivo, Apera spica-venti; details: Postemergence; for Plant response rating, Windgrass: scale 0 to 100, 0 no effect, 100 complete control
Source text: as §2

[1] = 62 g ai/ha, Preemergence, scale 0 to 100
[2] = 125 g ai/ha, preemergence, scale 0 to 100
[3] = Preemergence, 31 g ai/ha, scale 0 to 100

CC(Oc1c(C[S+]([O-])c2cccc[n+]2[O-])c(C(F)(F)F)nn1C)C(F)(F)F (centres unmarked) [Compound 77]
Plant response rating, Guineagrass (guineagrass; 16 g ai/ha, preemergence): 15
Guineagrass plant response rating (guineagrass; 62 g ai/ha, Preemergence): 100
Guineagrass plant response rating (guineagrass; 125 g ai/ha, preemergence): 100
Plant response rating, Guineagrass (guineagrass; Preemergence, 31 g ai/ha): 80
Plant response rating, Sandbur (southern sandbur; 16 g ai/ha, preemergence): 0
Sandbur plant response rating (southern sandbur; 125 g ai/ha, preemergence): 100
Plant response rating, Sandbur (southern sandbur; Preemergence, 62 g ai/ha): 95
Plant response rating, Sandbur (southern sandbur; Preemergence, 31 g ai/ha): 90
Plant response rating, Groundsel (common groundsel; 16 g ai/ha, preemergence): 0
Groundsel plant response rating (common groundsel; 62 g ai/ha, Preemergence): 0
Groundsel plant response rating (common groundsel; 125 g ai/ha, preemergence): 0
Plant response rating, Groundsel (common groundsel; Preemergence, 31 g ai/ha): 0
Plant response rating, Itchgrass (itchgrass; 16 g ai/ha, preemergence): 0
Itchgrass plant response rating (itchgrass; 62 g ai/ha, Preemergence): 65
Itchgrass plant response rating (itchgrass; 125 g ai/ha, preemergence): 95
Plant response rating, Itchgrass (itchgrass; Preemergence, 31 g ai/ha): 35
Russian Thistle plant response rating (Russian thistle; [1]): 100
Russian Thistle plant response rating (Russian thistle; 125 g ai/ha, preemergence, scale 0 (no effect) to 100 (complete control)): 100
Plant response rating, Russian Thistle (Russian thistle; Preemergence): 100
Russian Thistle plant response rating (Russian thistle; preemergence, 250 g ai/ha, scale 0 (no effect) to 100 (complete control)): 100
Plant response rating, Mallow (common mallow; 16 g ai/ha, preemergence): 65
Mallow plant response rating (common mallow; 62 g ai/ha, Preemergence): 90
Mallow plant response rating (common mallow; 125 g ai/ha, preemergence): 100
Plant response rating, Mallow (common mallow; Preemergence, 31 g ai/ha): 90
Plant response rating, Foxtail, Green (green foxtail; 16 g ai/ha, preemergence): 25
Foxtail, Green plant response rating (green foxtail; 62 g ai/ha, Preemergence): 90
Foxtail, Green plant response rating (green foxtail; 125 g ai/ha, preemergence): 100
Plant response rating, Foxtail, Green (green foxtail; Preemergence, 31 g ai/ha): 65
Plant response rating, Prickly Sida (prickly sida; 16 g ai/ha, preemergence): 20
Prickly Sida plant response rating (prickly sida; 62 g ai/ha, Preemergence): 80
Prickly Sida plant response rating (prickly sida; 125 g ai/ha, preemergence): 80
Plant response rating, Prickly Sida (prickly sida; Preemergence, 31 g ai/ha): 30
Plant response rating, Purslane (common purslane; 16 g ai/ha, preemergence): 0
Purslane plant response rating (common purslane; 62 g ai/ha, Preemergence): 20
Purslane plant response rating (common purslane; 125 g ai/ha, preemergence): 65
Plant response rating, Purslane (common purslane; Preemergence, 31 g ai/ha): 0
Plant response rating, Quackgrass (quackgrass; 16 g ai/ha, preemergence): 0
Quackgrass plant response rating (quackgrass; 62 g ai/ha, Preemergence): 40
Quackgrass plant response rating (quackgrass; 125 g ai/ha, preemergence): 80
Plant response rating, Quackgrass (quackgrass; Preemergence, 31 g ai/ha): 0
Plant response rating, Field Bindweed (field bindweed; 16 g ai/ha, preemergence): 0
Field Bindweed plant response rating (field bindweed; 62 g ai/ha, Preemergence): 35
Field Bindweed plant response rating (field bindweed; 125 g ai/ha, preemergence): 70
Plant response rating, Field Bindweed (field bindweed; Preemergence, 31 g ai/ha): 0
Plant response rating, Dallisgrass (dallisgrass; 16 g ai/ha, preemergence): 0
Dallisgrass plant response rating (dallisgrass; 62 g ai/ha, Preemergence): 98
Dallisgrass plant response rating (dallisgrass; 125 g ai/ha, preemergence): 100
Plant response rating, Dallisgrass (dallisgrass; Preemergence, 31 g ai/ha): 30
Plant response rating, Black Mustard (mustard; 16 g ai/ha, preemergence): 0
Black Mustard plant response rating (mustard; 62 g ai/ha, Preemergence): 65
Black Mustard plant response rating (mustard; 125 g ai/ha, preemergence): 100
Plant response rating, Black Mustard (mustard; Preemergence, 31 g ai/ha): 20
Plant response rating, Barnyardgrass (barnyardgrass; 16 g ai/ha, preemergence, scale 0 to 100 (0 no effect, 100 complete control)): 65
Barnyardgrass plant response rating (barnyardgrass; [1]): 100
Barnyardgrass plant response rating (barnyardgrass; [2]): 100
Plant response rating, Barnyardgrass (barnyardgrass; [3]): 90

Cc1cc[n+]([O-])c(S(=O)(=O)Cc2c(C(F)(F)F)nn(C)c2Cl)c1 [Compound 19]
Guineagrass plant response rating (guineagrass; 62 g ai/ha, Preemergence): 100
Guineagrass plant response rating (guineagrass; 125 g ai/ha, preemergence): 100
Plant response rating, Guineagrass (guineagrass; Preemergence, 16 g ai/ha): 50
Plant response rating, Guineagrass (guineagrass; Preemergence, 31 g ai/ha): 80
Sandbur plant response rating (southern sandbur; 62 g ai/ha, Preemergence): 90
Sandbur plant response rating (southern sandbur; 125 g ai/ha, preemergence): 100
Plant response rating, Sandbur (southern sandbur; Preemergence, 31 g ai/ha): 60
Groundsel plant response rating (common groundsel; 62 g ai/ha, Preemergence): 15
Groundsel plant response rating (common groundsel; 125 g ai/ha, preemergence): 70
Plant response rating, Groundsel (common groundsel; Preemergence, 16 g ai/ha): 0
Plant response rating, Groundsel (common groundsel; Preemergence, 31 g ai/ha): 0
Itchgrass plant response rating (itchgrass; 62 g ai/ha, Preemergence): 25
Itchgrass plant response rating (itchgrass; 125 g ai/ha, preemergence): 50
Plant response rating, Itchgrass (itchgrass; Preemergence, 16 g ai/ha): 0
Plant response rating, Itchgrass (itchgrass; Preemergence, 31 g ai/ha): 0
Russian Thistle plant response rating (Russian thistle; [1]): 100
Plant response rating, Russian Thistle (Russian thistle; Preemergence): 100
Mallow plant response rating (common mallow; 62 g ai/ha, Preemergence): 0
Mallow plant response rating (common mallow; 125 g ai/ha, preemergence): 40
Plant response rating, Mallow (common mallow; Preemergence, 16 g ai/ha): 0
Plant response rating, Mallow (common mallow; Preemergence, 31 g ai/ha): 0
Foxtail, Green plant response rating (green foxtail; 62 g ai/ha, Preemergence): 75
Foxtail, Green plant response rating (green foxtail; 125 g ai/ha, preemergence): 90
Plant response rating, Foxtail, Green (green foxtail; Preemergence, 16 g ai/ha): 0
Plant response rating, Foxtail, Green (green foxtail; Preemergence, 31 g ai/ha): 50
Prickly Sida plant response rating (prickly sida; 62 g ai/ha, Preemergence): 30
Prickly Sida plant response rating (prickly sida; 125 g ai/ha, preemergence): 60
Plant response rating, Prickly Sida (prickly sida; Preemergence, 16 g ai/ha): 0
Plant response rating, Prickly Sida (prickly sida; Preemergence, 31 g ai/ha): 20
Purslane plant response rating (common purslane; 62 g ai/ha, Preemergence): 0
Purslane plant response rating (common purslane; 125 g ai/ha, preemergence): 0
Plant response rating, Purslane (common purslane; Preemergence, 16 g ai/ha): 0
Plant response rating, Purslane (common purslane; Preemergence, 31 g ai/ha): 0
Quackgrass plant response rating (quackgrass; 62 g ai/ha, Preemergence): 40
Quackgrass plant response rating (quackgrass; 125 g ai/ha, preemergence): 60
Plant response rating, Quackgrass (quackgrass; Preemergence, 16 g ai/ha): 0
Plant response rating, Quackgrass (quackgrass; Preemergence, 31 g ai/ha): 0
Field Bindweed plant response rating (field bindweed; 62 g ai/ha, Preemergence): 0
Field Bindweed plant response rating (field bindweed; 125 g ai/ha, preemergence): 15
Plant response rating, Field Bindweed (field bindweed; Preemergence, 16 g ai/ha): 0
Plant response rating, Field Bindweed (field bindweed; Preemergence, 31 g ai/ha): 0
Dallisgrass plant response rating (dallisgrass; 62 g ai/ha, Preemergence): 65
Dallisgrass plant response rating (dallisgrass; 125 g ai/ha, preemergence): 90
Plant response rating, Dallisgrass (dallisgrass; Preemergence, 16 g ai/ha): 0
Plant response rating, Dallisgrass (dallisgrass; Preemergence, 31 g ai/ha): 20
Black Mustard plant response rating (mustard; 62 g ai/ha, Preemergence): 100
Black Mustard plant response rating (mustard; 125 g ai/ha, preemergence): 100
Plant response rating, Black Mustard (mustard; Preemergence, 16 g ai/ha): 0
Plant response rating, Black Mustard (mustard; Preemergence, 31 g ai/ha): 20
Barnyardgrass plant response rating (barnyardgrass; [1]): 90
Barnyardgrass plant response rating (barnyardgrass; [2]): 98
Plant response rating, Barnyardgrass (barnyardgrass; Preemergence, 16 g ai/ha, scale 0 to 100): 70
Plant response rating, Barnyardgrass (barnyardgrass; [3]): 80

CC(c1c(C(F)(F)F)nn(C)c1Cl)S(=O)(=O)c1ccc(Cl)c[n+]1[O-] (racemic) [Compound 40]
Plant response rating (0 to 100), Windgrass (windgrass; 31 g ai/ha): 45
Plant response rating (0 to 100), Windgrass (windgrass; 62 g ai/ha): 45
Plant response rating, Windgrass (windgrass; 125 g ai/ha): 85
Plant response rating, Windgrass (windgrass; 250 g ai/ha): 85
